US7208517B1, “Endothelin antagonists” (Abbott Labortories, priority 1994, dated 2007)
Read-outs that look alike come from different tables or passages of the source. One block for each compound: values may come before it.

Legend:
[1] = target: T1, ETA Receptor (Rattus norvegicus, UniProt P26684); assay: [125I]ET-1 binding to membranes from MMQ cells (ETA receptor binding assay, Table 4); settings: test compound at 1 μM, 0.1 nM [125I]ET-1, MMQ cell membranes, 4 hours at 25° C.
T1 construct: endogenous in cells; host or cells: MMQ rat pituitary cells (membranes)
T1 sequence (P26684 21-426): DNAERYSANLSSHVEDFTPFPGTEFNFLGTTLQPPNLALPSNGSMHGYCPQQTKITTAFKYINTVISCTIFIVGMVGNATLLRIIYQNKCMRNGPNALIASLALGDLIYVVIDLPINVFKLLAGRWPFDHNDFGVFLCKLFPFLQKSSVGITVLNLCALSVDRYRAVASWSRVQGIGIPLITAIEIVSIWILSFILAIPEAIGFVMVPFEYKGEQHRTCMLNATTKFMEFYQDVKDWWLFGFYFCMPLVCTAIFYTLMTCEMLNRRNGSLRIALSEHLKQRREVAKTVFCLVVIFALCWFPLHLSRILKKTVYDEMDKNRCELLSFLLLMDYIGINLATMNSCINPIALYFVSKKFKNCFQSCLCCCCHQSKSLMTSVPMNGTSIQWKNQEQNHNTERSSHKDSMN

[2] = Determination of plasma protein binding (ultrafiltration, HPLC); type: in vitro ADME; design: fraction unbound at 1 h: dose or concentration left out as unconfirmed; settings: fresh plasma, 1 hour at room temperature
Method: A stock solution of the test compound in 50% ethanol (2 mg/mL) was diluted 10× into PBS. A 0.4 mL sample of this secondary stock solution was added to 3.6 mL of fresh plasma, and incubated at room temperature for 1 hour. A 1 mL sample of this incubation mixture was transferred to a Centrifree ultrafiltration tube. The sample was centrifuged in a fixed-bucket rotor for approximately 2 min and the filtrate was discarded. The sample was centrifuged for another 15–30 min. A 100 μL sample of the ultrafiltrate was transfered to a micro HPLC sample vial containing […] of HPLC mobile phase and mixed thoroughly. A 50 μL sample was injected and the concentration of drug in the ultrafiltrate was determined by HPLC analysis compared against a standard sample prepared identically in the absence of plasma. Ultrafiltrate concentrations are calculated from a calibration curve. Protein binding is calculated according to the equation: % PB=[1−(Cu/Ci)]*100%
where Cu is the ultrafiltrate concentration and Ci is the initial plasma concentration.

[3] = test system: ET-1-induced phosphatidylinositol hydrolysis in MMQ cells; assay: Determination of ET-1-induced phosphatidylinositol (PI) hydrolysis in MMQ cells; type: cell-based, rat; settings: 1 nM ET-1 challenge, read-out: IC50 (inhibition of ET-induced increase in PI turnover)
Method: MMQ cells (0.4×10^6 cells/mL) were labeled with 10 μCi/mL of [^3H]myo-inositol in RPMI for 16 hours. The cells were washed with PBS, then incubated with Buffer A containing protease inhibitors and 10 mM LiCl for 60 minutes. The cells were then incubated with test compounds for 5 minutes, and then challenged with 1 nM ET-1. ET-1 challenge was terminated by the addition of 1.5 mL of 1:2 (v/v) chloroform-methanol. Total inositol phosphates were extracted after adding chloroform and water to give final proportions of 1:1:0.9 (v/v/v) chloroform-methanol-water as described by Berridge (Biochem. J. 206 587–595 (1982)). The upper aqueous phase (1 mL) was retained and a small portion (100 μL) was counted. The rest of the aqueous sample was analyzed by batch chromatography using anion-exchange resin AG1-X8 (Bio-Rad). […] The results of the above study clearly indicate that the compounds act as functional ET antagonists.

[4] = target: T2, human ETA receptor (Homo sapiens, UniProt P25101); assay: Albumin-induced binding shift study: [125I]ET-1 binding in presence of human serum albumin; settings: 0%, 0.2%, 1% or 5% HSA
T2 construct: expressed in transfected cells; host or cells: CHO cells, permanently transfected
T2 sequence (P25101 21-427): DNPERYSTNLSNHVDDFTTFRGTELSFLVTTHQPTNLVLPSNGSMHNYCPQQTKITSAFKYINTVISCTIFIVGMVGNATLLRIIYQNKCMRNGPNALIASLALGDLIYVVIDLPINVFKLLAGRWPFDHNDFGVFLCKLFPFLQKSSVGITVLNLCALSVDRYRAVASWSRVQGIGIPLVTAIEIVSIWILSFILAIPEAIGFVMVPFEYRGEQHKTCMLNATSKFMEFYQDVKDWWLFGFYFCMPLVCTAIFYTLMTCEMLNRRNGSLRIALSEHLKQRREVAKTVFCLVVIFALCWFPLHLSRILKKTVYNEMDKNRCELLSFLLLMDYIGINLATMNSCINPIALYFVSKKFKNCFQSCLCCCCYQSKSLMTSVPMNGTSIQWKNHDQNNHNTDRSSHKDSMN
Method: Protocol for Albumin-induced binding shift studies: Binding assays were performed in 96-well microtiter plates precoated with 0.1% BSA unless otherwise indicated. Membranes were diluted in Buffer B (20 mM Tris, 100 mM NaCl, 10 mM MgCl2, pH 7.4, 0.1 mM PMSF, […] Pepstatin A, 0.025% bacitracin and 3 mM EDTA) to a final concentration of 0.05 mg/ml of protein. Varying concentrations of human serum albumin (HSA) were added as indicated. In competition studies, membranes were incubated with 0.1 nM of [^125I]ET in Buffer B (final volume: 0.2 ml) in the presence of increasing concentrations of unlabeled test ligands for 4 hours at 25° C. After incubation, unbound ligands were separated from bound ligands by vacuum filtration using glass-fiber filter strips in PHD cell harvesters (Cambridge Technology, Inc., Watertown, MA), followed by washing the filter strips with saline (1 ml) for three times. Nonspecific binding was determined in the presence of 1 μM ET-1. Inhibition of [^125]ET-1 binding to human ETA receptor by ETA antagonists. Each curve was determined in the presence of either 0%, 0.2%, 1%, or 5% HSA, and assays were performed as described above. The results are expressed as % of control binding, with [^125I]ET-1 binding in the absence of antagonist defining 100%. Each point represents the mean (±S.D.) of three determinations.

[5] = pH-solubility profile: maximum solubility in aqueous media at varying pH; type: physicochemical
From the text: Such increased aqueous solubility, coupled with the enhanced potency resulting from decreased protein binding, might make such compounds preferred for development as parenteral agents.

[6] = target: T3, human ETB receptor (Homo sapiens, UniProt P24530); assay: ETA/ETB selectivity: (125I)ET-3 competition binding, CHO cells transfected with human ETB receptor (hET-B)
T3 construct: expressed in transfected cells; host or cells: CHO cells, permanently transfected
T3 sequence (P24530 27-442): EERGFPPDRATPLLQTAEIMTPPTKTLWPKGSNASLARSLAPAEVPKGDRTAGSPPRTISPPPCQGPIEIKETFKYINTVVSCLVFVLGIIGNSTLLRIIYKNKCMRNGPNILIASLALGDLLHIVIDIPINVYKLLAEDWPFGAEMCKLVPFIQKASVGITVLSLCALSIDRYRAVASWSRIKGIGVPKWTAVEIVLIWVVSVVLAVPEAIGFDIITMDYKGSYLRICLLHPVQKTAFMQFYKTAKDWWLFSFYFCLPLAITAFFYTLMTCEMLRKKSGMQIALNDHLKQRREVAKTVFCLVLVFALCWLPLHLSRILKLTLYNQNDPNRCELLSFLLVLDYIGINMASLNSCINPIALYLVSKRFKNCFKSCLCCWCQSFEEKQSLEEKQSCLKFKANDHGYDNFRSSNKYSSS
Method: MMQ cells, porcine cerebellar tissues (known to contain ETB receptors) and chinese hamster ovary cells (CHO) permanently transfected with the human ETA or ETB receptor were homogenized in 25 ml of 10 mM Hepes (pH 7.4) containing 0.25 M sucrose and a protease inhibitor [50 mM EDTA, 0.1 mM PMSF, 5 μg/ml Pepstatin A, and 0.025% Bacitracin] using a micro ultrasonic cell disrupter. The mixture was centrifuged at 1000×g for 10 min. The supernatant was collected and centrifuged at 60,000×g for 60 min. The precipitate was resuspended in 20 mM Tris, pH 7.4 containing protease inhibitor and centrifuged again. The final membrane pellet was resuspended in 20 mM Tris, pH 7.4 containing protease inhibitors and stored at −80° C. until used. Protein content was determined by the Bio-Rad dye-binding protein assay.
Binding assays were performed in 96-well microtiter plates pretreated with 0.1% BSA. Membranes prepared from cells were diluted 100 fold in Buffer B (20 mM Tris, 100 mM NaCl, 10 mM MgCl2, pH 7.4, with 0.2% BSA, 0.1 mM PMSF, 5 μg/mL Pepstatin A, 0.025% bacitracin, and 50 mM EDTA) to a final concentration of 0.2 mg/mL of protein. In competition binding studies, membranes (0.02 mg) were incubated with 0.1 nM of (^125I)ET-1 (for ETA assay in MMQ or CHO cells transfected with human ETA receptor) or (^125I)ET-3 (for ETB assay in porcine cerebellum or CHO cells transfected with human ETB receptor) in Buffer B (final volume: 0.2 mL) in the presence of increasing concentrations of the test compound for 3 hours at 25° C. After incubation, unbound ligands were separated from bound ligands by a vacuum filtration method using glass-fiber filter strips in PHD cell harvesters (Cambridge Technology, Inc., MA), washing the filter strips three times with saline (1 mL). Nonspecific binding was determined in the presence of 1 μM ET-1. IC50 values are calculated using an average of at least two separate determinations.

[7] = target: T4, ETB receptors of porcine cerebellar tissues (pET-B) (Sus scrofa, UniProt P35463); assay: ETA/ETB selectivity: (125I)ET-3 competition binding, ETB assay in porcine cerebellum membranes (pET-B); settings: porcine cerebellum membranes; 0.1 nM (125I)ET-3; read-out: pET-B IC50
T4 construct: porcine cerebellar tissues (known to contain ETB receptors); from tissue; host or cells: porcine cerebellum (membranes)
T4 sequence (P35463 27-443): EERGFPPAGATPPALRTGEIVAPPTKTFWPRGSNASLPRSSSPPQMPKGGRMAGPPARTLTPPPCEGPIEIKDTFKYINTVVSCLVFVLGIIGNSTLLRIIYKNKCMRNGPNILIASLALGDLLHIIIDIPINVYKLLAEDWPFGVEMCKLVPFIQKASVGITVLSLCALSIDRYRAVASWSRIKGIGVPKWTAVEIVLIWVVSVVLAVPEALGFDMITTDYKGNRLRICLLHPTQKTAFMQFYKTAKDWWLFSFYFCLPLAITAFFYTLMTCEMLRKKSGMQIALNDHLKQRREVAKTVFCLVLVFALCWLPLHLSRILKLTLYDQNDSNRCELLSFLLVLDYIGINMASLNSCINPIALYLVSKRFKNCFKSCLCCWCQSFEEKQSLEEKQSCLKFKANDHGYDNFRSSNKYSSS
Method: (§1) The mixture was centrifuged at 1000×g for 10 min. The supernatant was collected and centrifuged at 60,000×g for 60 min. The precipitate was resuspended in 20 mM Tris, pH 7.4 containing protease inhibitor and centrifuged again. The final membrane pellet was resuspended in 20 mM Tris, pH 7.4 containing protease inhibitors and stored at −80° C. until used. Protein content was determined by the Bio-Rad dye-binding protein assay.
(§2) Binding assays were performed in 96-well microtiter plates pretreated with 0.1% BSA. […] After incubation, unbound ligands were separated from bound ligands by a vacuum filtration method using glass-fiber filter strips in PHD cell harvesters (Cambridge Technology, Inc., MA), washing the filter strips three times with saline (1 mL). Nonspecific binding was determined in the presence of 1 μM ET-1. IC50 values are calculated using an average of at least two separate determinations.

[8] = target: T5, ETA receptor in MMQ cells (rET-A) (Rattus norvegicus, UniProt P26684); assay: ETA/ETB selectivity: (125I)ET-1 competition binding, ETA assay in MMQ cell membranes (rET-A); settings: MMQ cell membranes; for IC50: 0.1 nM (125I)ET-1, read-out: rET-A IC50
T5 construct: endogenous in cells; host or cells: MMQ rat pituitary cells (membranes)
T5 sequence (P26684 21-426): T1 sequence (P26684 21-426)
Method: as §1, §2

[9] = target: T2, human ETA receptor; assay: ETA/ETB selectivity: (125I)ET-1 competition binding, CHO cells transfected with human ETA receptor (hET-A)
Method: as §1, §2

[10] = test system: decrease in cerebral blood flow due to subarachnoid hemorrhage (SAH); settings: rats; cited from earlier work
[11] = test system: MAP; settings: sodium-depleted squirrel monkeys; dosed orally; cited from earlier work
[12] = test system: post-ischaemic renal vasoconstriction; settings: rats; cited from earlier work

% Inhibition of ETA at 1 μM [1]: 99.2%
percent of bound compound (plasma protein binding, % PB) [2]: > 98%
percent of bound compound (plasma protein binding, % PB) ([2]; listed as Example #43): >99.5%
IC50 [3]: 0.1 nM
maximum solubility ([5]; pH 5.1, about 25° C.): 80 µg/mL
maximum solubility ([5]; pH 6.5, about 25° C.): 510 µg/mL
maximum solubility ([5]; pH 7.1, about 25° C.): 990 µg/mL
maximum solubility ([5]; pH 7.6, about 25° C.): 1140 µg/mL
Structure (SMILES): CCCCN(CCCC)C(=O)CN1C[C@H](c2ccc3c(c2)OCO3)[C@@H](C(=O)O)[C@@H]1c1ccc(OC)cc1 (relative stereo) [Example 43, trans,trans-2-(4-Methoxyphenyl)-4-(1,3-benzodioxol-5-yl)-1-(N,N-di(n-butyl)aminocarbonylmethyl)-pyrrolidine-3-carboxylic acid]
shift of the binding curve in the presence of increasing albumin levels [4]: rightward shift of the binding curve (toward decreasing potency)

Structure (SMILES): CC=CC(C)(C)CC1C(C(=O)O)C(c2cc(OC)c3c(c2)OCO3)CN1CC(=O)N(CCCC)CCCC (stereo not shown) [Example 553]
IC50 [6]: 39500 nM
IC50 [7]: 42400 nM
IC50 ([3]; Rattus norvegicus): 0.4 nM
inhibition at 1 µM ([8]; 1 μM test compound): 100%
IC50 [8]: 0.26 nM
IC50 [9]: 0.29 nM

Structure (SMILES): COc1cccc(Oc2c(NS(=O)(=O)c3ccc(C(C)(C)C)cc3)ncnc2OCCO)c1 [Ro 46–2005]
decrease in cerebral blood flow due to subarachnoid hemorrhage (SAH) [10]: prevents the decrease in cerebral blood flow due to subarachnoid hemorrhage (SAH)
MAP [11]: decreases MAP
post-ischaemic renal vasoconstriction [12]: prevents post-ischaemic renal vasoconstriction

inhibition at 1 µM ([1]; read-out: % Inhibition of ETA at 1 μM): 100%
fraction unbound at 1 h ([2]; read-out: percent of bound compound (plasma protein binding, % PB) (converted)): 0.032
IC50 [7]: 3200 nM
IC50 [8]: 5.1 nM
Structure (SMILES): CCCCN(C(=O)CN1CC(c2ccc3c(c2)OCO3)C(C(=O)O)C1c1ccc(OC)cc1)c1cccc(CN)c1 (stereo not shown) [compound 532]
